Patent US12391648B2, “Pyridyloxy thioester derivative and preparation method therefor, herbicidal composition, and application” (Qingdao Kingagroot Chemical Compound Co., Ltd., priority 2018, dated 2025)

Key:
Assay in all cases: Post-emergence test experiment (Table 3, 1000 g/ha)
Format in all cases: in vivo
Conditions in all cases: post-emergence spray, after 3 weeks, fresh weight inhibition
[1] = tested on: Abutilon theophrasti
In short: (§1)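 Activity graded levels 0-5 by fresh-weight inhibition (level 5 above 85%, level 0 below 5%), assessed 3 weeks after treatment. Plants grown in greenhouse pots were sprayed post-emergence at 2-3 leaves using acetone/tween-80 solutions with methyl oleate synergist (1.5 L/ha).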

[2] = tested on: Monochoria vaginalis
In short: as §1

[3] = tested on: Galium spurium
In short: as §1

[4] = tested on: Leptochloa chinensis
In short: as §1

[5] = tested on: Setaria viridis
In short: as §1

[6] = tested on: Digitaria sanguinalis
In short: as §1

SMILES: COc1ccc(SC(=O)C(C)Oc2nc(F)c(Cl)c(N)c2Cl)cc1 (stereo not drawn) [Compound 111]
- Activity level (growth inhibition rate) Abutilon theophrasti [1]: 5 (Level 5: the growth inhibition rate is greater than 85%)
- Activity level (growth inhibition rate) Monochoria Vaginalis [2]: 5 (Level 5: the growth inhibition rate is greater than 85%)
- Activity level (growth inhibition rate) Galium spurium [3]: 5 (Level 5: the growth inhibition rate is greater than 85%)
- Activity level (growth inhibition rate) Leptochloa chinensis [4]: 5 (Level 5: the growth inhibition rate is greater than 85%)
- Activity level (growth inhibition rate) Setaria viridis [5]: 5 (Level 5: the growth inhibition rate is greater than 85%)
- Activity level (growth inhibition rate) Digitaria sanguinalis [6]: 5 (Level 5: the growth inhibition rate is greater than 85%)

SMILES: C=CCSC(=O)C(C)Oc1nc(F)c(Cl)c(N)c1Cl (stereo not drawn) [Compound 89]
- Activity level (growth inhibition rate) Abutilon theophrasti [1]: 5 (Level 5: the growth inhibition rate is greater than 85%)
- Activity level (growth inhibition rate) Monochoria Vaginalis [2]: 5 (Level 5: the growth inhibition rate is greater than 85%)
- Activity level (growth inhibition rate) Galium spurium [3]: 5 (Level 5: the growth inhibition rate is greater than 85%)
- Activity level (growth inhibition rate) Leptochloa chinensis [4]: 5 (Level 5: the growth inhibition rate is greater than 85%)
- Activity level (growth inhibition rate) Setaria viridis [5]: 5 (Level 5: the growth inhibition rate is greater than 85%)
- Activity level (growth inhibition rate) Digitaria sanguinalis [6]: 5 (Level 5: the growth inhibition rate is greater than 85%)

SMILES: CCC(C)CCSC(=O)C(C)Oc1nc(F)c(Cl)c(N)c1Cl (stereo not drawn) [Compound 153]
- Activity level (growth inhibition rate) Abutilon theophrasti [1]: 5 (Level 5: the growth inhibition rate is greater than 85%)
- Activity level (growth inhibition rate) Monochoria Vaginalis [2]: 5 (Level 5: the growth inhibition rate is greater than 85%)
- Activity level (growth inhibition rate) Galium spurium [3]: 5 (Level 5: the growth inhibition rate is greater than 85%)
- Activity level (growth inhibition rate) Leptochloa chinensis [4]: 5 (Level 5: the growth inhibition rate is greater than 85%)
- Activity level (growth inhibition rate) Setaria viridis [5]: 5 (Level 5: the growth inhibition rate is greater than 85%)
- Activity level (growth inhibition rate) Digitaria sanguinalis [6]: 5 (Level 5: the growth inhibition rate is greater than 85%)

SMILES: CC(Oc1nc(F)c(Cl)c(N)c1Cl)C(=O)Sc1ccoc1 (stereo not drawn) [Compound 120]
- Activity level (growth inhibition rate) Abutilon theophrasti [1]: 5 (Level 5: the growth inhibition rate is greater than 85%)
- Activity level (growth inhibition rate) Monochoria Vaginalis [2]: 5 (Level 5: the growth inhibition rate is greater than 85%)
- Activity level (growth inhibition rate) Galium spurium [3]: 5 (Level 5: the growth inhibition rate is greater than 85%)
- Activity level (growth inhibition rate) Leptochloa chinensis [4]: 5 (Level 5: the growth inhibition rate is greater than 85%)
- Activity level (growth inhibition rate) Setaria viridis [5]: 5 (Level 5: the growth inhibition rate is greater than 85%)
- Activity level (growth inhibition rate) Digitaria sanguinalis [6]: 5 (Level 5: the growth inhibition rate is greater than 85%)

SMILES: CSC(=O)C(C)Oc1nc(F)c(Cl)c(NCc2ccccc2)c1Cl (stereo not drawn) [Compound 132]
- Activity level (growth inhibition rate) Abutilon theophrasti [1]: 5 (Level 5: the growth inhibition rate is greater than 85%)
- Activity level (growth inhibition rate) Monochoria Vaginalis [2]: 5 (Level 5: the growth inhibition rate is greater than 85%)
- Activity level (growth inhibition rate) Galium spurium [3]: 5 (Level 5: the growth inhibition rate is greater than 85%)
- Activity level (growth inhibition rate) Leptochloa chinensis [4]: 5 (Level 5: the growth inhibition rate is greater than 85%)
- Activity level (growth inhibition rate) Setaria viridis [5]: 5 (Level 5: the growth inhibition rate is greater than 85%)
- Activity level (growth inhibition rate) Digitaria sanguinalis [6]: 5 (Level 5: the growth inhibition rate is greater than 85%)

SMILES: CC(Oc1nc(F)c(Cl)c(N)c1Cl)C(=O)SCC#N (stereo not drawn) [Compound 155]
- Activity level (growth inhibition rate) Abutilon theophrasti [1]: 5 (Level 5: the growth inhibition rate is greater than 85%)
- Activity level (growth inhibition rate) Monochoria Vaginalis [2]: 5 (Level 5: the growth inhibition rate is greater than 85%)
- Activity level (growth inhibition rate) Galium spurium [3]: 5 (Level 5: the growth inhibition rate is greater than 85%)
- Activity level (growth inhibition rate) Leptochloa chinensis [4]: 5 (Level 5: the growth inhibition rate is greater than 85%)
- Activity level (growth inhibition rate) Setaria viridis [5]: 5 (Level 5: the growth inhibition rate is greater than 85%)
- Activity level (growth inhibition rate) Digitaria sanguinalis [6]: 5 (Level 5: the growth inhibition rate is greater than 85%)

SMILES: CCCC(C)CSC(=O)C(C)Oc1nc(F)c(Cl)c(N)c1Cl (stereo not drawn) [Compound 152]
- Activity level (growth inhibition rate) Abutilon theophrasti [1]: 5 (Level 5: the growth inhibition rate is greater than 85%)
- Activity level (growth inhibition rate) Monochoria Vaginalis [2]: 5 (Level 5: the growth inhibition rate is greater than 85%)
- Activity level (growth inhibition rate) Galium spurium [3]: 5 (Level 5: the growth inhibition rate is greater than 85%)
- Activity level (growth inhibition rate) Leptochloa chinensis [4]: 5 (Level 5: the growth inhibition rate is greater than 85%)
- Activity level (growth inhibition rate) Setaria viridis [5]: 5 (Level 5: the growth inhibition rate is greater than 85%)
- Activity level (growth inhibition rate) Digitaria sanguinalis [6]: 5 (Level 5: the growth inhibition rate is greater than 85%)

SMILES: CCCCCCCCCCCSC(=O)C(C)Oc1nc(F)c(Cl)c(N)c1Cl (stereo not drawn) [Compound 142]
- Activity level (growth inhibition rate) Abutilon theophrasti [1]: 5 (Level 5: the growth inhibition rate is greater than 85%)
- Activity level (growth inhibition rate) Monochoria Vaginalis [2]: 5 (Level 5: the growth inhibition rate is greater than 85%)
- Activity level (growth inhibition rate) Galium spurium [3]: 5 (Level 5: the growth inhibition rate is greater than 85%)
- Activity level (growth inhibition rate) Leptochloa chinensis [4]: 5 (Level 5: the growth inhibition rate is greater than 85%)
- Activity level (growth inhibition rate) Setaria viridis [5]: 5 (Level 5: the growth inhibition rate is greater than 85%)
- Activity level (growth inhibition rate) Digitaria sanguinalis [6]: 5 (Level 5: the growth inhibition rate is greater than 85%)

SMILES: CCCCC(CC)CSC(=O)C(C)Oc1nc(C)c(C)c(N)c1C (stereo not drawn) [Compound 19]
- Activity level (growth inhibition rate) Abutilon theophrasti [1]: 5 (Level 5: the growth inhibition rate is greater than 85%)
- Activity level (growth inhibition rate) Monochoria Vaginalis [2]: 5 (Level 5: the growth inhibition rate is greater than 85%)
- Activity level (growth inhibition rate) Galium spurium [3]: 5 (Level 5: the growth inhibition rate is greater than 85%)
- Activity level (growth inhibition rate) Leptochloa chinensis [4]: 5 (Level 5: the growth inhibition rate is greater than 85%)
- Activity level (growth inhibition rate) Setaria viridis [5]: 5 (Level 5: the growth inhibition rate is greater than 85%)
- Activity level (growth inhibition rate) Digitaria sanguinalis [6]: 5 (Level 5: the growth inhibition rate is greater than 85%)

SMILES: CC(C)CCCCCSC(=O)C(C)Oc1nc(F)c(Cl)c(N)c1Cl (stereo not drawn) [Compound 136]
- Activity level (growth inhibition rate) Abutilon theophrasti [1]: 5 (Level 5: the growth inhibition rate is greater than 85%)
- Activity level (growth inhibition rate) Monochoria Vaginalis [2]: 5 (Level 5: the growth inhibition rate is greater than 85%)
- Activity level (growth inhibition rate) Galium spurium [3]: 5 (Level 5: the growth inhibition rate is greater than 85%)
- Activity level (growth inhibition rate) Leptochloa chinensis [4]: 5 (Level 5: the growth inhibition rate is greater than 85%)
- Activity level (growth inhibition rate) Setaria viridis [5]: 5 (Level 5: the growth inhibition rate is greater than 85%)
- Activity level (growth inhibition rate) Digitaria sanguinalis [6]: 5 (Level 5: the growth inhibition rate is greater than 85%)

SMILES: CC(Oc1nc(F)c(Cl)c(N)c1Cl)C(=O)Sc1ccc(C(F)(F)F)cc1 (stereo not drawn) [Compound 112]
- Activity level (growth inhibition rate) Abutilon theophrasti [1]: 5 (Level 5: the growth inhibition rate is greater than 85%)
- Activity level (growth inhibition rate) Monochoria Vaginalis [2]: 5 (Level 5: the growth inhibition rate is greater than 85%)
- Activity level (growth inhibition rate) Galium spurium [3]: 5 (Level 5: the growth inhibition rate is greater than 85%)
- Activity level (growth inhibition rate) Leptochloa chinensis [4]: 5 (Level 5: the growth inhibition rate is greater than 85%)
- Activity level (growth inhibition rate) Setaria viridis [5]: 5 (Level 5: the growth inhibition rate is greater than 85%)
- Activity level (growth inhibition rate) Digitaria sanguinalis [6]: 5 (Level 5: the growth inhibition rate is greater than 85%)

SMILES: CNc1c(Cl)c(F)nc(OC(C)C(=O)SC)c1Cl (stereo not drawn) [Compound 127]
- Activity level (growth inhibition rate) Abutilon theophrasti [1]: 5 (Level 5: the growth inhibition rate is greater than 85%)
- Activity level (growth inhibition rate) Monochoria Vaginalis [2]: 5 (Level 5: the growth inhibition rate is greater than 85%)
- Activity level (growth inhibition rate) Galium spurium [3]: 5 (Level 5: the growth inhibition rate is greater than 85%)
- Activity level (growth inhibition rate) Leptochloa chinensis [4]: 5 (Level 5: the growth inhibition rate is greater than 85%)
- Activity level (growth inhibition rate) Setaria viridis [5]: 5 (Level 5: the growth inhibition rate is greater than 85%)
- Activity level (growth inhibition rate) Digitaria sanguinalis [6]: 5 (Level 5: the growth inhibition rate is greater than 85%)

SMILES: Cc1ccccc1SC(=O)C(C)Oc1nc(F)c(Cl)c(N)c1Cl (stereo not drawn) [Compound 108]
- Activity level (growth inhibition rate) Abutilon theophrasti [1]: 5 (Level 5: the growth inhibition rate is greater than 85%)
- Activity level (growth inhibition rate) Monochoria Vaginalis [2]: 5 (Level 5: the growth inhibition rate is greater than 85%)
- Activity level (growth inhibition rate) Galium spurium [3]: 5 (Level 5: the growth inhibition rate is greater than 85%)
- Activity level (growth inhibition rate) Leptochloa chinensis [4]: 5 (Level 5: the growth inhibition rate is greater than 85%)
- Activity level (growth inhibition rate) Setaria viridis [5]: 5 (Level 5: the growth inhibition rate is greater than 85%)
- Activity level (growth inhibition rate) Digitaria sanguinalis [6]: 5 (Level 5: the growth inhibition rate is greater than 85%)

SMILES: CSC(=O)C(C)Oc1nc(F)c(Cl)c(NC(=O)c2ccccc2)c1Cl (stereo not drawn) [Compound 131]
- Activity level (growth inhibition rate) Abutilon theophrasti [1]: 5 (Level 5: the growth inhibition rate is greater than 85%)
- Activity level (growth inhibition rate) Monochoria Vaginalis [2]: 5 (Level 5: the growth inhibition rate is greater than 85%)
- Activity level (growth inhibition rate) Galium spurium [3]: 5 (Level 5: the growth inhibition rate is greater than 85%)
- Activity level (growth inhibition rate) Leptochloa chinensis [4]: 5 (Level 5: the growth inhibition rate is greater than 85%)
- Activity level (growth inhibition rate) Setaria viridis [5]: 5 (Level 5: the growth inhibition rate is greater than 85%)
- Activity level (growth inhibition rate) Digitaria sanguinalis [6]: 5 (Level 5: the growth inhibition rate is greater than 85%)
